From US20040248926A1, “Preventive or remedy for pruritus” (priority 2001, published 2004)

Legend:
Type in all cases: in vivo
Acute toxicity test = settings: oral administration, male dd mice, mortality on the seventh day
Description: The test compound was administered orally or intraperitoneally to three/group male dd mice (body weight: 20±1 g). The minimum lethal dose (MLD) was obtained by observing the mortality on the seventh day after the administration.

[1] = tested on: compound 48/80-induced scratching; test: Inhibitory effect on compound 48/80-induced scratching in mice; settings: for number of the scratching: mean ± standard error; for effect on compound 48/80-induced scratching (in words): mice, p.o.
Description: The experiment was carried out according to the method of Kuraishi, et al. [Eur. J. Pharmacol., Vol. 275, pp. 229-233 (1995)).
(§1) Male ddY mice each weighing 19 to 22 g (supplied by Japan SLC) were used in the test. 25 to 26 mice were put in each plastic cage and reared by allowing them to freely take commercially available solid feed and water, in an animal room at 19-25° C., 30-70% humidity and a 12 h lighting cycle (lighting: 7:00 a.m. to 7:00 p.m.) a day.
0.1 ml of a solution of compound 48/80 (by Sigma) (0.1 mg of compound 48/80 was dissolved in 1 ml of physiological saline) was subcutaneously injected into the right-side back shoulder of each mouse, and all the mice were individually put in a transparent cage. For 1 hour immediately after this, the behavior of every mouse was recorded with an 8-mm video camera recorder. The video was reproduced, and the number of the scratching by its right hind paw was counted for 1 hour immediately after the subcutaneous administration, at intervals of 5 minutes or 10 minutes, and the data of every 5 or 10 minutes were totaled. Each mouse scratched itself a few times per about one second, and a series of these actions of each mouse was counted as one.
Compound 1 and Compound 2 were separately suspended in aqueous 0.5 w/v % methyl cellulose solution to have a concentration of 3 mg/ml. The suspension of Compound 1 was further diluted with aqueous 0.5w/v % methyl cellulose solution, and suspensions or solutions for administration each having an intended concentration were prepared. The solvent (aqueous 0.5 w/v % methyl cellulose solution) or the suspension or solution for administration was orally administered to each mouse, 30 minutes before the subcutaneous injection of the compound 48/80, and its volume was 10 ml/kg. The solvent-administered mice were a control group.

[2] = tested on: poly-L-arginine-induced scratching; test: Inhibitory effect on poly-L-arginine-induced scratching; settings: rats
Description: The experiment was carried out according to the method of Hayashi, et al. [Eur. J. Pharmacol., Vol. 425, pp. 219-227 (2001)].
as §1, with “Male Wistar rats of 5 weeks” for “Male ddY mice each weighing 19 to 22 g”, “test. 4” for “test. 25”, “to 6 rats” for “to 26 mice”
Every rat was shaven on the back, individually put in an acrylic monitor cage (200×145×170 mm), and acclimated therein for 30 minutes. 50 μl of a solution of poly-L-arginine (by Sigma) (4 mg of poly-L-arginine was dissolved in 1 ml of physiological saline) was intracutaneously injected into the interscapular region of each rat. For 30 minutes immediately after this, the behavior of every rat was recorded with a 8-mm video camera recorder. The video was reproduced, and the number of the scratching by its back paws at around the area where the solution had been intracutaneously injected was counted for 30 minutes immediately after the intracutaneous administration. Each rat scratched itself a few times per about one second, and a series of these actions of each rat was counted as one.
Compound 1 was suspended in aqueous 0.5 w/v % methyl cellulose solution to have a concentration of 0.1 or 1 mg/ml. […]

C[C@](O)(C(=O)Nc1cccc2c1C(=O)c1sccc1CS2(=O)=O)C(F)(F)F [Compound 1, (S)-(+)-3,3,3-trifluoro-2-hydroxy-2-methyl-N-(5,5,10-trioxo-4,10-dihydrothieno[3,2c][1]benzothiepin-9-yl)propanamide]
minimum lethal dose (MLD) (Acute toxicity test): > 1000 mg/kg | number of the scratching ([1]; 3 mg/kg p.o., 0-5 min after subcutaneous injection of compound 48/80, totaled, n = 4): 3 ± 1 | number of the scratching ([1]; 3 mg/kg p.o., 5-10 min after subcutaneous injection, totaled, n = 4): 7 ± 2 | number of the scratching ([1]; 3 mg/kg p.o., 10-15 min after subcutaneous injection, totaled, n = 4): 9 ± 1 | number of the scratching ([1]; 3 mg/kg p.o., 15-20 min after subcutaneous injection, totaled, n = 4): 12 ± 4 | number of the scratching ([1]; 3 mg/kg p.o., 20-25 min after subcutaneous injection, totaled, n = 4): 13 ± 4 | number of the scratching ([1]; 3 mg/kg p.o., 25-30 min after subcutaneous injection, totaled, n = 4): 14 ± 5 | number of the scratching ([1]; 3 mg/kg p.o., 30-35 min after subcutaneous injection, totaled, n = 4): 15 ± 5 | number of the scratching ([1]; 3 mg/kg p.o., 35-40 min after subcutaneous injection, totaled, n = 4): 15 ± 5 | number of the scratching ([1]; 3 mg/kg p.o., 40-45 min after subcutaneous injection, totaled, n = 4): 17 ± 6 | number of the scratching ([1]; 3 mg/kg p.o., 45-50 min after subcutaneous injection, totaled, n = 4): 18 ± 6 | number of the scratching ([1]; 3 mg/kg p.o., 50-55 min after subcutaneous injection, totaled, n = 4): 18 ± 6 | number of the scratching ([1]; 3 mg/kg p.o., 55-60 min after subcutaneous injection, totaled, n = 4): 18 ± 6 | number of the scratching ([1]; 10 mg/kg p.o., 0-5 min after subcutaneous injection, totaled, n = 4): 2 ± 1 | number of the scratching ([1]; 10 mg/kg p.o., 5-10 min after subcutaneous injection, totaled, n = 4): 6 ± 2 | number of the scratching ([1]; 10 mg/kg p.o., 10-15 min after subcutaneous injection, totaled, n = 4): 8 ± 2 | number of the scratching ([1]; 10 mg/kg p.o., 15-20 min after subcutaneous injection, totaled, n = 4): 9 ± 2 | number of the scratching ([1]; 10 mg/kg p.o., 20-25 min after subcutaneous injection, totaled, n = 4): 10 ± 3 | number of the scratching ([1]; 10 mg/kg p.o., 25-30 min after subcutaneous injection, totaled, n = 4): 10 ± 3 | number of the scratching ([1]; 10 mg/kg p.o., 30-35 min after subcutaneous injection, totaled, n = 4): 11 ± 3 | number of the scratching ([1]; 10 mg/kg p.o., 35-40 min after subcutaneous injection, totaled, n = 4): 11 ± 3 | number of the scratching ([1]; 10 mg/kg p.o., 40-45 min after subcutaneous injection, totaled, n = 4): 12 ± 3 | number of the scratching ([1]; 10 mg/kg p.o., 45-50 min after subcutaneous injection, totaled, n = 4): 12 ± 3 | number of the scratching ([1]; 10 mg/kg p.o., 50-55 min after subcutaneous injection, totaled, n = 4): 12 ± 3 | number of the scratching ([1]; 10 mg/kg p.o., 55-60 min after subcutaneous injection, totaled, n = 4): 12 ± 3 | number of the scratching ([1]; 30 mg/kg p.o., 0-5 min after subcutaneous injection, totaled, n = 4): 0 ± 0 | number of the scratching ([1]; 30 mg/kg p.o., 5-10 min after subcutaneous injection, totaled, n = 4): 0 ± 0 | number of the scratching ([1]; 30 mg/kg p.o., 10-15 min after subcutaneous injection, totaled, n = 4): 1 ± 1 | number of the scratching ([1]; 30 mg/kg p.o., 15-20 min after subcutaneous injection, totaled, n = 4): 2 ± 1 | number of the scratching ([1]; 30 mg/kg p.o., 20-25 min after subcutaneous injection, totaled, n = 4): 3 ± 1 | number of the scratching ([1]; 30 mg/kg p.o., 25-30 min after subcutaneous injection, totaled, n = 4): 3 ± 1 | number of the scratching ([1]; 30 mg/kg p.o., 30-35 min after subcutaneous injection, totaled, n = 4): 4 ± 1 | number of the scratching ([1]; 30 mg/kg p.o., 35-40 min after subcutaneous injection, totaled, n = 4): 4 ± 1 | number of the scratching ([1]; 30 mg/kg p.o., 40-45 min after subcutaneous injection, totaled, n = 4): 4 ± 1 | number of the scratching ([1]; 30 mg/kg p.o., 45-50 min after subcutaneous injection, totaled, n = 4): 4 ± 1 | number of the scratching ([1]; 30 mg/kg p.o., 50-55 min after subcutaneous injection, totaled, n = 4): 4 ± 1 | number of the scratching ([1]; 30 mg/kg p.o., 55-60 min after subcutaneous injection, totaled, n = 4): 4 ± 1 | effect on compound 48/80-induced scratching (in words) [1]: inhibited | Number of Scratching Actions for 30 minutes ([2]; 10 mg/kg p.o., 2 hours before intracutaneous poly-L-arginine, mean ± standard error, n = 8): 14 ± 3 | effect on poly-L-arginine-induced pruritic behavior (in words) ([2]; p.o.): inhibited

CC(C)(O)C(=O)Nc1cccc2c1C(=O)c1sccc1CS2(=O)=O [Compound 2, 2-hydroxy-2-methyl-N-(5,5,10-trioxo-4,10-dihydrothieno [3,2c][1]benzothiepin-9-yl)propanamide]
number of the scratching ([1]; 30 mg/kg p.o., 0-10 min after subcutaneous injection, totaled, n = 10): 10 ± 2 | number of the scratching ([1]; 30 mg/kg p.o., 10-20 min after subcutaneous injection, totaled, n = 10): 11 ± 3 | number of the scratching ([1]; 30 mg/kg p.o., 20-30 min after subcutaneous injection, totaled, n = 10): 14 ± 2 | number of the scratching ([1]; 30 mg/kg p.o., 30-40 min after subcutaneous injection, totaled, n = 10): 14 ± 2 | number of the scratching ([1]; 30 mg/kg p.o., 40-50 min after subcutaneous injection, totaled, n = 10): 14 ± 2 | number of the scratching ([1]; 30 mg/kg p.o., 50-60 min after subcutaneous injection, totaled, n = 10): 14 ± 2 | effect on compound 48/80-induced scratching (in words) [1]: inhibited
